Measured values as given in publication PMC8711653, “The Nature of Diamino Linker and Halogen Bonding Define Selectivity of Pyrrolopyrimidine-Based LIMK1 Inhibitors” (Frontiers in Chemistry, 2021).
Like-named read-outs stand apart in the source and are kept apart here.

Key:
LIMK1 [1] = molecular target: T1, LIMK1 (Homo sapiens, UniProt P53667); assay: LIMK1 ADP-Glo kinase assay (Promega); format: biochemical; settings: 0.1 μM compound
T1 construct: purchased Promega
Method: ADP-Glo kinase assay was performed in 96-well plate format using the Promega kinase assay system. LIMK1 (0.1 μg) and compounds (0.1–100 μM) were dissolved in kinase reaction buffer and incubated for 30 min at rt. The reaction was then initiated by the addition of ATP (10 μM, 5 μl) and incubation for 30 min at 30°C. The reaction was then quenched with addition of 25 μl of ADP-Glo reagent. Kinase detection reagent (50 μl) was added and incubated for 30 min prior to luminescence reading on the BMG Labtech PHERAstar FS plate reader. Kinase assay is performed as duplicate.

C6 cells = assay: Scratch (wound closure) assay, cell migration velocity; format: cell-based; settings: live imaging 24 h, compared to untreated cell
Method: Cofilin, the substrate for LIMK1, regulates the actin skeleton and thus regulates cell migration ([Bravo-Cordero et al., 2013]). To understand the inhibitory effect of compounds 1 and 22–26 in vitro, scratch assays were performed. The artificial wound was created by “scratching” in the middle of the well with confluent C6 cells in culture. Live imaging was captured for 24 h to measure the distance of cell migration (Figure 3; Supplementary video).
The velocity of cell migration is measured using the C6 cell line in the 24-well plate. Cells were seeded at 100,000 cells/well. After 24 h, cells were washed with warm PBS and treated with the inhibitors. Directly following the treatment, cells were moved into a preheated stage-top incubator maintained at 37°C/5% CO2, using the ZEISS Axio Observer live cell microscope, fitted with an Axiocam 702 mono camera. Cells were imaged once every 10 min using a ×10 objective with phase contrast for a 24-h period. Cell migration was analysed using Fiji ImageJ (NIH) and Chemotaxis Migration Tool (ibidi).

LIMK1 [2] = molecular target: T1, LIMK1; assay: 33P-ATP radiotracer assay, LIMK1 (Reaction Biology Corporation); format: biochemical; settings: for IC50: 33P transfer from ATP to cofilin, 10 μM 33P-ATP, 1 μM cofilin, triplicate
Method: (§1) To measure the selectivity against LIMK isoforms, the radiotracer assay measuring the transfer of ^33P from ATP to the substrate was used since there was no ADP-Glo™ kinase assay system available for LIMK2 (Table 2).
(§2) The radiotracer assay of LIMK1 and LIMK2 was performed by Reaction Biology Corporation. Compounds were tested in 10-dose IC50 mode with fivefold series dilution starting at 10 μM. Reactions were carried out at 10 μM ^33P-ATP, 1 μM cofilin substrate, and 50 nM LIMK1 (final concentration). Kinase activity is determined by the transfer or radioactive ^33P from ATP to cofilin substrate. Radiotracer assay is performed as triplicate.

LIMK2 [3] = molecular target: T2, LIMK2 (Homo sapiens, UniProt P53671); assay: 33P-ATP radiotracer assay, LIMK2 (Reaction Biology Corporation); format: biochemical
T2 construct: purchased Reaction Biology Corporation
T2 sequence (P53671 whole entry): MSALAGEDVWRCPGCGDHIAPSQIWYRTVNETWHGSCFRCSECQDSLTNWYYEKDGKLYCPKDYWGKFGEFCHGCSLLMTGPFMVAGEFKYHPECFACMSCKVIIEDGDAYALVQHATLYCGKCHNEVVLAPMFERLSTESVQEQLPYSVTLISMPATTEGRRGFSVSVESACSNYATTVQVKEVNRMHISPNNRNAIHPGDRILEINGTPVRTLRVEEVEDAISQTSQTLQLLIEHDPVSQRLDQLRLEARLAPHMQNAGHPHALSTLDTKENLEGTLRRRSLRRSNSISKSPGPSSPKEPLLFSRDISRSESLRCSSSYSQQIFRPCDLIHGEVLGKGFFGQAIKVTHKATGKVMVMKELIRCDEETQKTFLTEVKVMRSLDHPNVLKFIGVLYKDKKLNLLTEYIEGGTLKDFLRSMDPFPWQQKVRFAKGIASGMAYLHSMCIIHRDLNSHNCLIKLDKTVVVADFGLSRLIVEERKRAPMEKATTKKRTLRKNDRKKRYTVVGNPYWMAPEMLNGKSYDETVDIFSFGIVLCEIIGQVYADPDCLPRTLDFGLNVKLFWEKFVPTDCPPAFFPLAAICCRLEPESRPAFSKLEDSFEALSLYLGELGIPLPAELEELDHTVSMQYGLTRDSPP
Method: as §1, §2

LIMK2 [4] = molecular target: T2, LIMK2; settings: Figure 1A, known inhibitors, ref Harrison et al., 2009, Boland et al., 2015, Yin et al., Yi et al., 2017; cited from earlier work
LIMK1 [5] = molecular target: T1, LIMK1; settings: Figure 1A, known inhibitors, ref Harrison et al., 2009, Boland et al., 2015, Yin et al., Yi et al., 2017; cited from earlier work
[6] = Promega ADP-Glo kinase assay, Table 1, read-out: % LIMK1 inhibition at 0.1 μM
[7] = Promega ADP-Glo kinase assay, Table 2, read-out: % LIMK1 inhibition at 0.1 μM
[8] = 33P transfer from ATP to cofilin, 10 μM 33P-ATP, 1 μM cofilin, triplicate
[9] = 33P radiotracer assay, top concentration 10 μM
[10] = Promega ADP-Glo kinase assay, Table 1, read-out: % LIMK1 inhibition at 0.1 μM (dash = no inhibition)
[11] = ADP-Glo assay, read-out: LIMK1 inhibitory activity at 0.1 μM

T1 sequence (P53667 whole entry): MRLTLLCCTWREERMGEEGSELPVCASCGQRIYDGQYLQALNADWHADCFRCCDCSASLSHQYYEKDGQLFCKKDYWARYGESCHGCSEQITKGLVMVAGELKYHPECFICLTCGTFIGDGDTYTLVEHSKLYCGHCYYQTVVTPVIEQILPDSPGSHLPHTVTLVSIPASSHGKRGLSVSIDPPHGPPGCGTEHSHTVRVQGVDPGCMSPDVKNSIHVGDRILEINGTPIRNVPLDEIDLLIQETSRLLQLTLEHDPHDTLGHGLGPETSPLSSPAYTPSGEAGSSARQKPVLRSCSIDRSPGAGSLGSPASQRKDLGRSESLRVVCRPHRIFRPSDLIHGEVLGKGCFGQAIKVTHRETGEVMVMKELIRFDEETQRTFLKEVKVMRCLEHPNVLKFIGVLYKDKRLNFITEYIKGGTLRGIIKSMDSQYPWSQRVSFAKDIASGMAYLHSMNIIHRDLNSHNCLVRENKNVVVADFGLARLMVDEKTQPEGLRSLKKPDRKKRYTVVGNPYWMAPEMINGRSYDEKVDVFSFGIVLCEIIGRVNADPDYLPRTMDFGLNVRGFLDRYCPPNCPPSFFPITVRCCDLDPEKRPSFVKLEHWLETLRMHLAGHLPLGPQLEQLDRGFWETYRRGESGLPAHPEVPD

With `Cc1c[nH]c2ncnc(NCCNC(=NC#N)Nc3cccc(I)c3)c12` [Compound 10, 2-Cyano-1-(3-iodophenyl)-3-(2-((5-methyl-7H-pyrrolo[2,3-d]pyrimidin-4-yl)amino)ethyl)guanidine] the melting point was 88 to 89 °C and the inhibition at 0.1 µM (LIMK1 [1]; [6]) was 17.8 ± 7.1%.
In the case of `Cc1c[nH]c2ncnc(N3CCN(C(=NC#N)Nc4cccc(I)c4)[C@@H](C)C3)c12` [Compound 22, (S)-N′-Cyano-N-(3-iodophenyl)-2-methyl-4-(5-methyl-7H-pyrrolo[2,3-d]pyrimidin-4-yl)piperazine-1-carboximidamide], the cell migration velocity (C6 cells) is reported as “lowered the migration even further”, the melting point is reported as 130 to 131 °C and the IC50 (LIMK1 [2]) is reported as 0.13 ± 0.01 nM. For the same compound, the inhibition at 0.1 µM (LIMK1 [1]; [7]) was 95.5 ± 0.4% and the IC50 (LIMK2 [3]; [8]) was 0.47 ± 0.01 nM.
`Cc1c[nH]c2ncnc(N[C@@H]3CCCC[C@H]3NC(=NC#N)Nc3cccc(Br)c3)c12` [Compound 23, 1-(3-Bromophenyl)-2-cyano-3-((1R,2R)-2-((5-methyl-7H-pyrrolo[2,3-d]pyrimidin-4-yl)amino)cyclohexyl)guanidine] gave a melting point of 127 to 128 °C, an IC50 (LIMK1 [2]) of 2830 nM and an inhibition at 0.1 µM (LIMK1 [1]; [7]) of 96.7 ± 0.1%. The IC50 (LIMK2 [3]; [8]) was 2650 nM.
Work on `Cc1c[nH]c2ncnc(N[C@H]3CCCC[C@@H]3NC(=NC#N)Nc3cccc(I)c3)c12` [Compound 26, 2-Cyano-1-(3-iodophenyl)-3-((1S,2S)-2-((5-methyl-7H-pyrrolo[2,3-d]pyrimidin-4-yl)amino)cyclohexyl)guanidine] yielded a melting point of 128 to 129 °C, an IC50 (LIMK1 [2]) of 8360 nM and an inhibition at 0.1 µM (LIMK1 [1]; [7]) of 94.9 ± 0.8%. For the same compound, the “inhibition of LIMK2 (in words)” value (LIMK2 [3]; 33P radiotracer assay) was “no significant inhibition of LIMK2” and the IC50 (LIMK2 [3]; [9]) was greater than 10000 nM.
For `Cc1c[nH]c2ncnc(NCCCCNC(=NC#N)Nc3cccc(Cl)c3)c12` [Compound 14, 1-(3-Chlorophenyl)-2-cyano-3-(4-((5-methyl-7H-pyrrolo[2,3-d]pyrimidin-4-yl)amino)butyl)guanidine], the melting point was 90 to 91 °C, the “LIMK1 inhibitory activity at 0.1 μM (in words)” value (“LIMK1 inhibitory activity” for short) (LIMK1 [1]; ADP-Glo assay) was “completely abolished inhibitory activity” and the inhibition at 0.1 µM (LIMK1 [1]; [10]) was less than 0%.
In the case of `Cc1c[nH]c2ncnc(NCCCNC(=NC#N)Nc3cccc(Cl)c3)c12` [Compound 11, 1-(3-Chlorophenyl)-2-cyano-3-(3-((5-methyl-7H-pyrrolo[2,3-d]pyrimidin-4-yl)amino)propyl)guanidine], the melting point is reported as 88 to 90 °C and the inhibition at 0.1 µM (LIMK1 [1]; [6]) is reported as 15 ± 10.7%.
With `Cc1c[nH]c2ncnc(NCCCNC(=NC#N)Nc3cccc(I)c3)c12` [Compound 13, 2-Cyano-1-(3-iodophenyl)-3-(3-((5-methyl-7H-pyrrolo[2,3-d]pyrimidin-4-yl)amino)propyl)guanidine] the melting point was 91 to 93 °C and the inhibition at 0.1 µM (LIMK1 [1]; [6]) was 17.8 ± 7.1%.
In the case of `Cc1c[nH]c2ncnc(NCCNC(=NC#N)Nc3cccc(Cl)c3)c12` [Compound 8, 1-(3-Chlorophenyl)-2-cyano-3-(2-((5-methyl-7H-pyrrolo[2,3-d]pyrimidin-4-yl)amino)ethyl)guanidine], the melting point is reported as 87 to 88 °C, the “LIMK1 inhibitory activity” value (LIMK1 [1]; ADP-Glo assay) is reported as “completely abolished inhibitory activity” and the inhibition at 0.1 µM (LIMK1 [1]; [10]) is reported as less than 0%.
`Cc1c[nH]c2ncnc(N[C@H]3CC[C@H](NC(=NC#N)Nc4cccc(I)c4)CC3)c12` [Compound 19, 2-Cyano-1-(3-iodophenyl)-3-((1r,4r)-4-((5-methyl-7H-pyrrolo[2,3-d]pyrimidin-4-yl)amino)cyclohexyl)guanidine] showed a melting point of 129 to 130 °C and an inhibition at 0.1 µM (LIMK1 [1]; [6]) of 66.6 ± 8.8%.
With `Cc1c[nH]c2ncnc(NCCCCNC(=NC#N)Nc3cccc(Br)c3)c12` [Compound 15, 1-(3-Bromophenyl)-2-cyano-3-(4-((5-methyl-7H-pyrrolo[2,3-d]pyrimidin-4-yl)amino)butyl)guanidine] the melting point was 97 to 98 °C, the inhibition at 0.1 µM (LIMK1 [1]; [11]) was 47% and the inhibition at 0.1 µM (LIMK1 [1]; [6]) was 47.1 ± 1.6%.
For `Cc1c[nH]c2ncnc(N[C@H]3CC[C@H](NC(=NC#N)Nc4cccc(Br)c4)CC3)c12` [Compound 18, 1-(3-Bromophenyl)-2-cyano-3-((1r,4r)-4-((5-methyl-7H-pyrrolo[2,3-d]pyrimidin-4-yl)amino)cyclohexyl)guanidine], the melting point was 127 to 128 °C, the inhibition at 0.1 µM (LIMK1 [1]; [11]) was 69% and the inhibition at 0.1 µM (LIMK1 [1]; [6]) was 69.2 ± 1.7%.
Work on `Cc1c[nH]c2ncnc(N[C@H]3CC[C@H](NC(=NC#N)Nc4cccc(Cl)c4)CC3)c12` [Compound 17, 1-(3-Chlorophenyl)-2-cyano-3-((1r,4r)-4-((5-methyl-7H-pyrrolo[2,3-d]pyrimidin-4-yl)amino)cyclohexyl)guanidine] yielded a melting point of 120 to 122 °C, an inhibition at 0.1 µM (LIMK1 [1]; [11]) of 42% and an inhibition at 0.1 µM (LIMK1 [1]; [6]) of 41.7 ± 0.1%.
With `Cc1c[nH]c2ncnc(N[C@H]3CCCC[C@@H]3NC(=NC#N)Nc3cccc(Br)c3)c12` [Compound 25, 1-(3-Bromophenyl)-2-cyano-3-((1S,2S)-2-((5-methyl-7H-pyrrolo[2,3-d]pyrimidin-4-yl)amino)cyclohexyl)guanidine] the melting point was 127 to 128 °C, the inhibition at 10 µM (LIMK1 [2]; 10 μM compound, 33P radiotracer assay) was 47% and the inhibition at 0.1 µM (LIMK1 [1]; [7]) was 96 ± 0.5%. The “inhibition of LIMK2 (in words)” value (LIMK2 [3]; 33P radiotracer assay) was “no significant inhibition of LIMK2” and the IC50 (LIMK2 [3]; [9]) was greater than 10000 nM.
With `Cc1c[nH]c2ncnc(NCCCNC(=NC#N)Nc3cccc(Br)c3)c12` [Compound 12, 1-(3-Bromophenyl)-2-cyano-3-(3-((5-methyl-7H-pyrrolo[2,3-d]pyrimidin-4-yl)amino)propyl)guanidine] the melting point was 88 to 89 °C, the “LIMK1 inhibitory activity” value (LIMK1 [1]; ADP-Glo assay) was “abolished the inhibitory activity” and the inhibition at 0.1 µM (LIMK1 [1]; [10]) was less than 0%.
For `Cc1c[nH]c2ncnc(N[C@@H]3CCCC[C@H]3NC(=NC#N)Nc3cccc(I)c3)c12` [Compound 24, 2-Cyano-1-(3-iodophenyl)-3-((1R,2R)-2-((5-methyl-7H-pyrrolo[2,3-d]pyrimidin-4-yl)amino)cyclohexyl)guanidine], the melting point was 128 to 129 °C, the IC50 (LIMK1 [2]) was 5080 nM and the inhibition at 0.1 µM (LIMK1 [1]; [7]) was 93.2 ± 1.2%. For the same compound, the IC50 (LIMK2 [3]; [8]) was 3380 nM.
With `Cc1c[nH]c2ncnc(NCCCCNC(=NC#N)Nc3cccc(I)c3)c12` [Compound 16, 2-Cyano-1-(3-iodophenyl)-3-(4-((5-methyl-7H-pyrrolo[2,3-d]pyrimidin-4-yl)amino)butyl)guanidine] the melting point was 90 to 91 °C and the inhibition at 0.1 µM (LIMK1 [1]; [6]) was 41 ± 2.5%.
For `CN(C)C(=O)Oc1cccc(NC(=O)C2(CN)CCN(c3ncnc4[nH]cc(Cl)c34)CC2)c1` [Compound 4], the IC50 (LIMK2 [4]) is given as 1.6 nM and the IC50 (LIMK1 [5]) is given as 24 nM.
Compound `Cc1c[nH]c2ncnc(NCCNC(=NC#N)Nc3cccc(Br)c3)c12` [Compound 9, 1-(3-Bromophenyl)-2-cyano-3-(2-((5-methyl-7H-pyrrolo[2,3-d]pyrimidin-4-yl)amino)ethyl)guanidine] has a melting point of 86 to 88 °C and an inhibition at 0.1 µM (LIMK1 [1]; [6]) of 29.4 ± 10.3%.
For `Cc1c[nH]c2ncnc(N3CCN(/C(=N/C#N)Nc4cccc(Br)c4)[C@@H](C)C3)c12` [Compound 1, reference compound], the cell migration velocity (C6 cells) was “reduced the cell velocity by twofold”, the IC50 (LIMK1 [2]) was 0.28 ± 0.01 nM and the inhibition at 0.1 µM (LIMK1 [1]; [6]) was 94.3 ± 0.2%. For the same compound, the IC50 (LIMK2 [3]; [8]) was 0.86 ± 0.05 nM.
